Measurements as given in PMC6524416, “Nanofibrous Scaffolds Support a 3D in vitro Permeability Model of the Human Intestinal Epithelium” (Frontiers in Pharmacology, 2019).
Where two headings read alike, the source gives them in different places.

How the values were obtained:
[1] = Bidirectional permeability across ex vivo porcine intestinal segments; assay type: in vitro ADME, pig; settings: pig; for recovery: pH 7.4, porcine intestinal segments; for Papp A→B / Papp B→A: pH 7.4, all porcine segments (duodenum, jejunum, ileum); for Papp A→B: A to B, read-out: Papp (A to B), range over porcine segments; for Papp B→A: B to A, read-out: Papp (B to A), range over porcine segments
Protocol: (§1) In accordance with the NC3R framework on the reduction and refinement of animals in research; samples were only obtained from healthy adult pig cadavers being used for the purposes of other research projects. The work was conducted according to United Kingdom Home Office guidelines (Animal Scientific Procedures Act […]) and following local AWERB approval (ref 000057). Regional sections from the duodenum (first 25 cm from the stomach), jejunum (150 cm from the stomach) and ileum (first 50 cm back from the ileocecal valve) were resected from pig cadavers (Supplementary Figure S2). Using tweezers the serosa and muscularis propria (muscle layers) were carefully peeled away leaving the mucosa. Sections were washed in PBS, cut to fit the Transwell® inserts (Corning Life Sciences) and transferred in 6-well plates. All tissue was kept on the ice and used within a 24 h time period, post-collection.
(§2) Transport studies were conducted using standard, widely accepted protocols as previously described ([Volpe, 2008]). Transport markers were prepared in transport buffer (HBSS, 25 mM HEPES, pH 7.4). Dimethyl sulfoxide (DMSO) was used to aid solubilisation of poorly soluble drugs at a maximum final concentration of 0.1% (v/v) used in all transport experiments. TEER was measured before and after each experiment to ensure barrier integrity during the experiments and as a control measure of experimental validity. Inserts were transferred to fresh plates containing transport buffer (apical/basolateral volumes were 0.4/1.2 mL and 0.5/6 mL for Transwell® and Snapwell® inserts, respectively). Donor solutions were added to the relevant compartments and the inserts were then incubated at 37°C with shaking at 150 rpm and sampled at intervals of 30 min or 1 h for 1–2 h. Apparent permeability coefficients (Papp) were calculated according to Eq. 2:
(§3) Where dQ/dt is the flux of the compound being investigated (μM s-1), A is the exposed surface area of the insert/scaffold (cm^2) and C0 is the concentration in the apical compartment at t = 0 (μM).
(§4) Compound recovery following permeability assessment were calculated according the following Eq. 3:
(§5) (3) Recovery (%)=[CR(final)×VR(final))×100/(CD(initial)×VD(initial)]
(§6) Where CD and CR are the donor and receiver compartment concentrations, VD and VR are the donor and receiver compartment volumes at t = 0 (initial) or the end of the experiment (final).
(§7) All HPLC was performed using a Kinetix XB-C18 5 μm, 100 Å pore size, 150 mm × 4.56 mm column (with a guard column) on an Agilent 1100 HPLC system. […] Samples were analyzed using gradient runs with Milli-Q dH2O, 0.5% TFA (eluent A) and acetonitrile, 0.5% TFA (eluent B).

[2] = tested on: porcine intestinal tissue; settings: uncorrected Papp; ref Westerhout et al. (2014); cited from earlier work
[3] = tested on: Caco-2 cultures on nanofibrous scaffolds; assay: Bidirectional permeability across Caco-2 cultures on collagen-coated PET nanofibrous scaffolds; assay type: in vitro ADME, human
Protocol: (§8) Polyethylene terephthalate flakes (food grade; were procured from recycled plastic bottles and processed in-house) were dissolved in a 1:1 solution of dichloromethane and trifluoroacetic acid (overnight with stirring) and the polymer solution transferred into a syringe fitted with a blunt needle (18 gauge spinneret) attached to a syringe pump (Harvard Apparatus, United Kingdom). Electrospinning was conducted at a flow rate of 0.5 mL/hr at 14 kV voltage (Glassman High Voltage Inc., Series EL, Glassman Europe Ltd., United Kingdom; Supplementary Figure S1). The fibers were collected on a grounded static plate or rotating collector (a tip-collector distance of 15 cm). The scaffolds were removed with the aid of 70% (v/v) IMS and allowed to air dry at room temperature (RT).
(§9) The nanofibrous scaffolds were surface coated with type I bovine collagen (Sigma-Aldrich). For type I bovine collagen coating, 150 μL of collagen solution (stock and working concentrations 3.1 mg/mL and 31 μg/mL, respectively) was gently pipetted ensuring adequate coverage of the entire scaffold. Samples were incubated at RT under aseptic conditions for 1–2 h. Any remaining collagen solution was aspirated and the scaffolds washed with PBS before cell seeding. Control scaffolds included PET nanofibers with no surface treatment.
(§10) Caco-2 (used within 20 passages throughout the study) was obtained from the Clinical Pathology Laboratory, Queens Medical Centre, Nottingham and are available from ATCC. They were cultured in DMEM (Gibco) supplemented with 10% (v/v) foetal calf serum (FCS), 2 mM L-Glutamine solution, 1% (v/v) antibiotic/antimycotic solution (Gibco; final concentrations of […] streptomycin sulfate and 25 μgmL^-1 amphotericin B) at 37°C, 5% CO2 in 95% relative humidity (RH). Cells were cultured to around 80% confluence before harvesting cells by passaging with Trypsin/EDTA (Sigma Aldrich). Cell culture media was replaced every 2 days. For the initial evaluation of the scaffold compatibility, Collagen type I and untreated nanofibrous scaffolds were mounted in 24-well Cell Crown^TM inserts (Scaffdex). The mounted inserts were then placed in 12-well culture plates and seeded with 50,000 cells in 200 μL per insert. An additional 1 mL culture media was added to the well of the plate which ensured the insert were adequately surrounded and bathed in culture media. Following 24 h of culture at 37°C, 5% CO2, the PrestoBlue viability assay was carried out according to manufacturer’s instructions. In brief, a working solution of 10% (v/v) was prepared from the stock PrestoBlue solution in HBSS and sterile filtered using a 0.2 μm pore filter. Samples were washed three times with pre-warmed PBS and the working solution of PrestoBlue solution applied to the upper chamber of the inserts. Following a 30 min incubation period at 37°C, 5% CO2 with shaking at 150 rpm, 100 μL aliquots were taken from each sample and dispensed in triplicate into a black 96-well plate. The fluorescence of the samples was determined using a plate reader (Tecan Infinite 200, Tecan, United Kingdom) at 530/590 nm (excitation/emission wavelengths). Subsequent viability assays were conducted on day 3 and day 6 of culture to provide an initial assessment of the benefit of the surface treatments on cell adhesion and proliferation. To evaluate barrier formation, Snapwell® hanging inserts (6-well; Corning Life Sciences) were employed as unlike the CellCrown^TM inserts, the Snapwell® hanging inserts provided discrete apical and basolateral chambers in a 6-well plate formate appropriate for assessing barrier formation. The existing polycarbonate membrane on the securing clip of the Snapwell® insert were removed with a scalpel and the nanofiber scaffold affixed securely to the hanging insert by means of the securing clip (Supplementary Figure S1).

[4] = as above; assay type: in vitro ADME, human; settings: human, Caco-2 on nanofiber scaffolds, pH 7.4, mean (±SD)
Protocol: as §8, §9, §10

[5] = Bidirectional permeability across Caco-2 monolayers on Transwell inserts; assay type: in vitro ADME, human; settings: human, Caco-2 on Transwell; for Papp A→B: apical to basolateral; for Papp A→B / Papp B→A: pH 7.4, mean (±SD); for Papp B→A: basolateral to apical
Protocol: as §10, with “S1). Cells were seeded using the same cell density (178,000 cells/cm^2) as had been previously optimized for Caco-2 Transwell® cultures ([Hubatsch et al., 2007]). A cell suspension containing 200,000 cells in 500 μL were seeded onto the upper chamber of the Snapwell® inserts and cultured for 15–21 days at 37°C, 5% CO2 in air prior for TEER evaluation and for permeability tests.” for “S1).”
as §2, with “2: […]” for “2:”

[6] = tested on: porcine intestinal segments; assay: Bidirectional permeability across ex vivo porcine intestinal segments; assay type: in vitro ADME, pig
Protocol: as §1, §2, §3, §4, §5, §6, §7

human jejunal = settings: ref Sjöberg et al. (2013), Rozehnal et al. (2012), cited from earlier work
[7] = tested on: Caco-2 monolayers on Transwell®; assay: Bidirectional permeability across Caco-2 monolayers on Transwell inserts; assay type: in vitro ADME, human; settings: Caco-2 on Transwell, pH 7.4, mean (±SD)
Protocol: as §10, with “S1). Cells were seeded using the same cell density (178,000 cells/cm^2) as had been previously optimized for Caco-2 Transwell® cultures ([Hubatsch et al., 2007]). A cell suspension containing 200,000 cells in 500 μL were seeded onto the upper chamber of the Snapwell® inserts and cultured for 15–21 days at 37°C, 5% CO2 in air prior for TEER evaluation and for permeability tests.” for “S1).”
as §2, with “2: […]” for “2:”

Caco-2 monolayers = tested on: Caco-2 monolayers; set-up: method as in Artursson et al., 1993, 2001; settings: ref Artursson et al., 1993, 2001; cited from earlier work

**Q.** Which recovery ([1]; read-out: average recovery) does the source give for CC(C)NCC(O)COc1ccc(CC(N)=O)cc1 (stereo not drawn) [ATN, Atenolol] here?
**A.** 80%

**Q.** And the recovery ([1]; read-out: recovery (range))?
**A.** 70 to 95%

**Q.** For CC(C)NCC(O)COc1cccc2ccccc12 (stereo not drawn) [PRN, Propranolol], which recovery ([1]; read-out: average recovery) is on record?
**A.** 58%

**Q.** What about the recovery ([1]; read-out: recovery (range)) of the same compound?
**A.** 35 to 75%

**Q.** What about the Papp A→B [1] of the same compound?
**A.** 7.76 to 9.6 ×10⁻⁶ cm/s

**Q.** What about the Papp B→A [1] of the same compound?
**A.** 1.85 to 5.5 ×10⁻⁶ cm/s

**Q.** And the Papp [2]?
**A.** 0.42 ×10⁻⁶ cm/s

**Q.** What about the “increase in permeability over Transwell cultures” value ([3]; nanofiber based culture vs Transwell Caco-2) of the same compound?
**A.** more than a two-fold increase

**Q.** And the Papp A→B ([4]; apical to basolateral)?
**A.** 86.3 ×10⁻⁶ cm/s

**Q.** And the Papp B→A ([4]; basolateral to apical)?
**A.** 75.1 ×10⁻⁶ cm/s

**Q.** And the Papp A→B [5]?
**A.** 30.7 ×10⁻⁶ cm/s

**Q.** And the Papp B→A [5]?
**A.** 32 ×10⁻⁶ cm/s

**Q.** Which recovery ([1]; read-out: recovery (range)) does the source give for COC(=O)c1ccccc1-c1c2ccc(=N)cc-2oc2cc(N)ccc12 [Rho-123, rhodamine 123] here?
**A.** 37 to 54%

**Q.** What about the Papp A→B [1] of the same compound?
**A.** 5.6 to 7.6 ×10⁻⁶ cm/s

**Q.** What about the Papp B→A [1] of the same compound?
**A.** 1.8 to 3.6 ×10⁻⁶ cm/s

**Q.** And the active efflux ([6]; porcine tissue segments)?
**A.** not detectable

**Q.** And the active efflux ([3]; 3D nanofiber based cultures)?
**A.** not detectable

**Q.** What about the efflux ratio at 10 µM ([5]; pH 7.4, B to A / A to B) of the same compound?
**A.** 4.6

**Q.** What about the Papp A→B [5] of the same compound?
**A.** 0.82 ×10⁻⁶ cm/s

**Q.** What about the Papp B→A [5] of the same compound?
**A.** 3.8 ×10⁻⁶ cm/s

**Q.** Which “human jejunal Papp” value (human jejunal; second listed value) does the source give for OC[C@@H](O)[C@@H](O)[C@H](O)[C@H](O)CO [mannitol] here?
**A.** 5.56 ± 2.21 × 10^-6 cm s^-1

**Q.** With lucifer yellow [LY] as the compound, how does the “human jejunal Papp” value (human jejunal; first listed value) read?
**A.** 4.02 ± 2.20 × 10^-6 cm s^-1

**Q.** And the “Papp (A to B)” value ([6]; porcine duodenal section)?
**A.** 4.66 (±1.19) × 10^-6 cm s^-1

**Q.** What about the “Papp (B to A)” value ([6]; porcine duodenal section) of the same compound?
**A.** 2.01 (±0.85) × 10^-6 cm s^-1

**Q.** What about the “Papp (A to B)” value ([6]; porcine ileal section) of the same compound?
**A.** 5.58 (±3.93) × 10^-6 cm s^-1

**Q.** And the “Papp (B to A)” value ([6]; porcine ileal section)?
**A.** 3.80 (±3.46) × 10^-6 cm s^-1

**Q.** And the “Papp (A to B)” value ([6]; porcine jejunal section)?
**A.** 5.71 (±1.50) × 10^-6 cm s^-1

**Q.** What about the “Papp (B to A)” value ([6]; porcine jejunal section) of the same compound?
**A.** 4.31 (±2.58) × 10^-6 cm s^-1

**Q.** What about the “Papp (A to B)” value ([3]; Caco-2 on nanofiber scaffolds, apical to basolateral, pH 7.4, mean (±SD)) of the same compound?
**A.** 7.14 (±0.4.53) × 10^-6 cm s^-1

**Q.** What about the “Papp (B to A)” value ([3]; Caco-2 on nanofiber scaffolds, basolateral to apical, pH 7.4, mean (±SD)) of the same compound?
**A.** 8.51 (±6.61) × 10^-6 cm s^-1

**Q.** What about the “Papp (A to B)” value ([7]; apical to basolateral) of the same compound?
**A.** 0.30 (±0.13) × 10^-6 cm s^-1

**Q.** What about the “Papp (B to A)” value ([7]; basolateral to apical) of the same compound?
**A.** 0.66 (±0.23) × 10^-6 cm s^-1

**Q.** Which “fold lower permeability in Caco-2 monolayers compared to human in vivo” value (Caco-2 monolayers) does the source give for polyethylene glycols here?
**A.** ~100 fold
